Results as given in ChEMBL document CHEMBL4196002, “Design, synthesis, mechanistic and histopathological studies of small-molecules of novel indole-2-carboxamides and pyrazino[1,2-a]indol-1(2H)-ones as potential anticancer agents effecting the reactive oxygen species production” (Eur J Med Chem, 2018).

tested on: not listed separately; assay: Cytotoxicity against human MCF10A cells assessed as cell viability at 50 uM after 96 hrs by MTT assay relative to control; type: cell-based, MCF-10A; details: read-out: Activity

Structure (SMILES) | viability at 96 h, 50 µM
CCc1c(C(=O)NC(CO)Cc2ccccc2)[nH]c2ccc(Br)cc12 (stereo not given) | 85%
CCc1c(C(=O)NC(CO)Cc2ccccc2)[nH]c2ccc(C(F)(F)F)cc12 (stereo not given) | 80%
Cc1c(C(=O)NC(CO)Cc2ccccc2)[nH]c2ccc(Cl)cc12 (stereo not given) | 90%
CCc1c2cc(Cl)ccc2n2cc(Cc3ccc(Cl)cc3)[nH]c(=O)c12 | 90%
CCc1c(C(=O)NC(CO)Cc2ccccc2)[nH]c2ccc(Cl)cc12 (stereo not given) | 87%

tested on: not listed separately; assay: Inhibition of ROS generation in human PMN at 0.78 ug/ml after 50 mins by luminol-based chemiluminescence assay relative to control; type: functional; details: not given

Structure (SMILES) | inhibition at 0.78 µg/mL
CCc1c(C(=O)NC(CO)Cc2ccccc2)[nH]c2ccc(Br)cc12 (stereo not given) | 19%
CCc1c(C(=O)NC(CO)Cc2ccccc2)[nH]c2ccc(C(F)(F)F)cc12 (stereo not given) | 26%
Cc1c(C(=O)NC(CO)Cc2ccccc2)[nH]c2ccc(Cl)cc12 (stereo not given) | 39%
CCc1c2cc(Cl)ccc2n2cc(Cc3ccc(Cl)cc3)[nH]c(=O)c12 | 25%
CC(=O)Oc1ccccc1C(=O)O [ASPIRIN] | 33%
CCc1c(C(=O)NC(CO)Cc2ccccc2)[nH]c2ccc(Cl)cc12 (stereo not given) | 20%

tested on: not listed separately; assay: Inhibition of ROS generation in human PMN at 1.56 ug/ml after 50 mins by luminol-based chemiluminescence assay relative to control; type: functional; details: not given

Structure (SMILES) | inhibition at 1.56 µg/mL
CCc1c(C(=O)NC(CO)Cc2ccccc2)[nH]c2ccc(Br)cc12 (stereo not given) | 31%
CCc1c(C(=O)NC(CO)Cc2ccccc2)[nH]c2ccc(C(F)(F)F)cc12 (stereo not given) | 31%
Cc1c(C(=O)NC(CO)Cc2ccccc2)[nH]c2ccc(Cl)cc12 (stereo not given) | 45%
CCc1c2cc(Cl)ccc2n2cc(Cc3ccc(Cl)cc3)[nH]c(=O)c12 | 37%
CC(=O)Oc1ccccc1C(=O)O [ASPIRIN] | 46%
CCc1c(C(=O)NC(CO)Cc2ccccc2)[nH]c2ccc(Cl)cc12 (stereo not given) | 31%

tested on: PC-3; assay: Antiproliferative activity human PC3 cells after 48 hrs by propidium iodide staining-based fluorescence assay; type: functional, cell-based; details: PC-3, 48 h

IC50 | Structure (SMILES)
5.9 µM | CCc1c(C(=O)NC(CO)Cc2ccccc2)[nH]c2ccc(Br)cc12 (stereo not given)
1.1 µM | CCc1c(C(=O)NC(CO)Cc2ccccc2)[nH]c2ccc(C(F)(F)F)cc12 (stereo not given)
2.5 µM | Cc1c(C(=O)NC(CO)Cc2ccccc2)[nH]c2ccc(Cl)cc12 (stereo not given)
15.8 µM | CCc1c2cc(Cl)ccc2n2cc(Cc3ccc(Cl)cc3)[nH]c(=O)c12
8.9 µM | CCc1c(C(=O)NC(CO)Cc2ccccc2)[nH]c2ccc(Cl)cc12 (stereo not given)

tested on: A549; assay: Antiproliferative activity human A549 cells after 48 hrs by propidium iodide staining-based fluorescence assay; type: functional, cell-based; details: A549, 48 h

IC50 | Structure (SMILES)
4.8 µM | CCc1c(C(=O)NC(CO)Cc2ccccc2)[nH]c2ccc(Br)cc12 (stereo not given)
1.5 µM | CCc1c(C(=O)NC(CO)Cc2ccccc2)[nH]c2ccc(C(F)(F)F)cc12 (stereo not given)
2.9 µM | Cc1c(C(=O)NC(CO)Cc2ccccc2)[nH]c2ccc(Cl)cc12 (stereo not given)
27.9 µM | CCc1c2cc(Cl)ccc2n2cc(Cc3ccc(Cl)cc3)[nH]c(=O)c12
11.4 µM | CCc1c(C(=O)NC(CO)Cc2ccccc2)[nH]c2ccc(Cl)cc12 (stereo not given)

tested on: MCF7; assay: Antiproliferative activity human MCF7 cells after 48 hrs by propidium iodide staining-based fluorescence assay; type: functional, cell-based; details: MCF7, 48 h

IC50 | Structure (SMILES)
4.7 µM | CCc1c(C(=O)NC(CO)Cc2ccccc2)[nH]c2ccc(Br)cc12 (stereo not given)
1.1 µM | CCc1c(C(=O)NC(CO)Cc2ccccc2)[nH]c2ccc(C(F)(F)F)cc12 (stereo not given)
2.8 µM | Cc1c(C(=O)NC(CO)Cc2ccccc2)[nH]c2ccc(Cl)cc12 (stereo not given)
26.5 µM | CCc1c2cc(Cl)ccc2n2cc(Cc3ccc(Cl)cc3)[nH]c(=O)c12
12.9 µM | CCc1c(C(=O)NC(CO)Cc2ccccc2)[nH]c2ccc(Cl)cc12 (stereo not given)

tested on: MIA PaCa-2; assay: Antiproliferative activity human MIAPaCa2 cells after 48 hrs by propidium iodide staining-based fluorescence assay; type: functional, cell-based; details: MIA PaCa-2, 48 h

IC50 | Structure (SMILES)
5.5 µM | CCc1c(C(=O)NC(CO)Cc2ccccc2)[nH]c2ccc(Br)cc12 (stereo not given)
1.3 µM | CCc1c(C(=O)NC(CO)Cc2ccccc2)[nH]c2ccc(C(F)(F)F)cc12 (stereo not given)
2.6 µM | Cc1c(C(=O)NC(CO)Cc2ccccc2)[nH]c2ccc(Cl)cc12 (stereo not given)
33.7 µM | CCc1c2cc(Cl)ccc2n2cc(Cc3ccc(Cl)cc3)[nH]c(=O)c12
12.5 µM | CCc1c(C(=O)NC(CO)Cc2ccccc2)[nH]c2ccc(Cl)cc12 (stereo not given)

tested on: HT-29; assay: Antiproliferative activity human HT-29 cells after 48 hrs by propidium iodide staining-based fluorescence assay; type: functional, cell-based; details: HT-29, 48 h

IC50 | Structure (SMILES)
6.5 µM | CCc1c(C(=O)NC(CO)Cc2ccccc2)[nH]c2ccc(Br)cc12 (stereo not given)
1.9 µM | CCc1c(C(=O)NC(CO)Cc2ccccc2)[nH]c2ccc(C(F)(F)F)cc12 (stereo not given)
2.9 µM | Cc1c(C(=O)NC(CO)Cc2ccccc2)[nH]c2ccc(Cl)cc12 (stereo not given)
27.8 µM | CCc1c2cc(Cl)ccc2n2cc(Cc3ccc(Cl)cc3)[nH]c(=O)c12
12.2 µM | CCc1c(C(=O)NC(CO)Cc2ccccc2)[nH]c2ccc(Cl)cc12 (stereo not given)

biological target: Tubulin (Homo sapiens) (UniProt P68371+Q9H4B7+P0DPH7+P68366+Q13509+Q71U36+P04350+Q3ZCM7+P07437+P68363+Q9BQE3+Q6PEY2+Q13885+Q9BVA1+Q9BUF5); assay: Inhibition of tubulin (unknown origin) polymerization assessed as tubulin assembly rate by fluorescence assay; type: protein-complex assay; details: not given

Activity | Structure (SMILES)
2650 a.u. | CCc1c(C(=O)NC(CO)Cc2ccccc2)[nH]c2ccc(C(F)(F)F)cc12 (stereo not given)
2570 a.u. | Cc1c(C(=O)NC(CO)Cc2ccccc2)[nH]c2ccc(Cl)cc12 (stereo not given)

biological target: Epidermal growth factor receptor (Homo sapiens, UniProt P00533); assay: Inhibition of His6-tagged EGFR (unknown origin) cytoplasmic domain expressed in baculovirus infected Sf9 insect cells after 10 mins followed by addition of ATP-MgCl2 and measured after 1 hr by time-resolved fluorometric analysis; details: not given
Sequence (P00533 whole entry, the tested form may be a part): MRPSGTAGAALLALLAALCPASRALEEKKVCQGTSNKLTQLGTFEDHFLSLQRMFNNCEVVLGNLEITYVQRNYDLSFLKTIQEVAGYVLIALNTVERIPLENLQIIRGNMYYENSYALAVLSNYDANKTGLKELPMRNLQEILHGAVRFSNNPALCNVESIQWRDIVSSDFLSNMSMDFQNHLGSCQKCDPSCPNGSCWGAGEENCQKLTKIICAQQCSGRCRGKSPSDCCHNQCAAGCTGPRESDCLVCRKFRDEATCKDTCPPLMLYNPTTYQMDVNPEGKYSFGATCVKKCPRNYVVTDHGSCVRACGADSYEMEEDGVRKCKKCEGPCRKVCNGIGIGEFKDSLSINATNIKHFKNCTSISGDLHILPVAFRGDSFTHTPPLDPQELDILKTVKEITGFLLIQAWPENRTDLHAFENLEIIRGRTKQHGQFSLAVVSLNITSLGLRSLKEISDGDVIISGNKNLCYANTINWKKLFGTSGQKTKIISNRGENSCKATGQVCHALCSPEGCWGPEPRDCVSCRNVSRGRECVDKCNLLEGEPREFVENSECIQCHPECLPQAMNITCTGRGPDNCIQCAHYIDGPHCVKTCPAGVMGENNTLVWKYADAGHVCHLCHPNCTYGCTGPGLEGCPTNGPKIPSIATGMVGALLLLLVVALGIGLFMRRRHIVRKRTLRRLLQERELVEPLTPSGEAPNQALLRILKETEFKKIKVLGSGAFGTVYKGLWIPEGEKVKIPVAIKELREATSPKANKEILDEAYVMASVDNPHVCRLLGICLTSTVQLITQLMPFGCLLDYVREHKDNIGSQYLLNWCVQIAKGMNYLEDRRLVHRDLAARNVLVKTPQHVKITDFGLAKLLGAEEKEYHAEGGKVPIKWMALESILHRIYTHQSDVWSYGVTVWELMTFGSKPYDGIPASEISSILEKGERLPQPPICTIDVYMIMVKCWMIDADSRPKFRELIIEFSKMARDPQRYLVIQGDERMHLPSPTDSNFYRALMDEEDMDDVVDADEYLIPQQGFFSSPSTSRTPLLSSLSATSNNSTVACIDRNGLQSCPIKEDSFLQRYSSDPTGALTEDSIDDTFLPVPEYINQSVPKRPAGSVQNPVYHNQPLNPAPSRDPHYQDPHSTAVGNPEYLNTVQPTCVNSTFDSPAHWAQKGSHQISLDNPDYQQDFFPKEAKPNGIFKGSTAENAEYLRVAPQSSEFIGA

IC50 | Structure (SMILES)
0.9 µM | CCc1c(C(=O)NC(CO)Cc2ccccc2)[nH]c2ccc(C(F)(F)F)cc12 (stereo not given)
0.5 µM | Cc1c(C(=O)NC(CO)Cc2ccccc2)[nH]c2ccc(Cl)cc12 (stereo not given)

biological target: Serine/threonine-protein kinase B-raf (Mus musculus, UniProt P28028, V600E); assay: Inhibition of mouse full-length GST-tagged BRAF V600E mutant using recombinant human full length N-terminal His-tagged MEK1 as substrate preincubated for 60 mins followed by substrate addition and measured after 25 mins by ELISA; details: not given
Sequence (P28028 whole entry, looked up, stated change not applied): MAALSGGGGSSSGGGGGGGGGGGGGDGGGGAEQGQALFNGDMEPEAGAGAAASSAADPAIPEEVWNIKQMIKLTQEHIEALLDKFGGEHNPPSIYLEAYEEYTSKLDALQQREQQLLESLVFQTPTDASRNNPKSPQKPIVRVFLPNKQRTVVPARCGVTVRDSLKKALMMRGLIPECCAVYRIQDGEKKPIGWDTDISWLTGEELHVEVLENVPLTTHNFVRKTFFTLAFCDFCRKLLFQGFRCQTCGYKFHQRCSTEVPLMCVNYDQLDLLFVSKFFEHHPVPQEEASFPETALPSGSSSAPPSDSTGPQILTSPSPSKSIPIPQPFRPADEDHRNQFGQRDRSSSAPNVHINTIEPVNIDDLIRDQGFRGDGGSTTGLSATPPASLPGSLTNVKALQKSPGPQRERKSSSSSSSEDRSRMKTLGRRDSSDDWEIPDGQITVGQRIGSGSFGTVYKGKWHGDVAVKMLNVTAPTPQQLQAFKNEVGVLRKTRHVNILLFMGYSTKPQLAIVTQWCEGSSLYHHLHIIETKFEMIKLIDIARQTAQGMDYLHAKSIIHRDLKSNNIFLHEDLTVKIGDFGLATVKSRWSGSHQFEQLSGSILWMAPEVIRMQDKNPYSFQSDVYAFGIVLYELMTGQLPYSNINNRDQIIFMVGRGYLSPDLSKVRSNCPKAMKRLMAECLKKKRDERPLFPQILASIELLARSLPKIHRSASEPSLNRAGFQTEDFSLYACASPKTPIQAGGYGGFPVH

IC50 | Structure (SMILES)
1 µM | CCc1c(C(=O)NC(CO)Cc2ccccc2)[nH]c2ccc(C(F)(F)F)cc12 (stereo not given)
3.7 µM | Cc1c(C(=O)NC(CO)Cc2ccccc2)[nH]c2ccc(Cl)cc12 (stereo not given)

tested on: not listed separately; assay: Inhibition of ROS generation in human PMN at 3.13 ug/ml after 50 mins by luminol-based chemiluminescence assay relative to control; type: functional; details: not given

Structure (SMILES) | inhibition at 3.13 µg/mL
CCc1c(C(=O)NC(CO)Cc2ccccc2)[nH]c2ccc(Br)cc12 (stereo not given) | 45%
CCc1c(C(=O)NC(CO)Cc2ccccc2)[nH]c2ccc(C(F)(F)F)cc12 (stereo not given) | 47%
Cc1c(C(=O)NC(CO)Cc2ccccc2)[nH]c2ccc(Cl)cc12 (stereo not given) | 58%
CCc1c2cc(Cl)ccc2n2cc(Cc3ccc(Cl)cc3)[nH]c(=O)c12 | 52%
CC(=O)Oc1ccccc1C(=O)O [ASPIRIN] | 63%
CCc1c(C(=O)NC(CO)Cc2ccccc2)[nH]c2ccc(Cl)cc12 (stereo not given) | 42%

tested on: not listed separately; assay: Inhibition of ROS generation in human PMN at 6.25 ug/ml after 50 mins by luminol-based chemiluminescence assay relative to control; type: functional; details: not given

Structure (SMILES) | inhibition at 6.25 µg/mL
CCc1c(C(=O)NC(CO)Cc2ccccc2)[nH]c2ccc(Br)cc12 (stereo not given) | 55%
CCc1c(C(=O)NC(CO)Cc2ccccc2)[nH]c2ccc(C(F)(F)F)cc12 (stereo not given) | 62%
Cc1c(C(=O)NC(CO)Cc2ccccc2)[nH]c2ccc(Cl)cc12 (stereo not given) | 65%
CCc1c2cc(Cl)ccc2n2cc(Cc3ccc(Cl)cc3)[nH]c(=O)c12 | 68%
CC(=O)Oc1ccccc1C(=O)O [ASPIRIN] | 85%
CCc1c(C(=O)NC(CO)Cc2ccccc2)[nH]c2ccc(Cl)cc12 (stereo not given) | 55%

tested on: not listed separately; assay: Inhibition of ROS generation in human PMN at 12.5 ug/ml after 50 mins by luminol-based chemiluminescence assay relative to control; type: functional; details: not given

Structure (SMILES) | inhibition at 12.5 µg/mL
CCc1c(C(=O)NC(CO)Cc2ccccc2)[nH]c2ccc(Br)cc12 (stereo not given) | 67%
CCc1c(C(=O)NC(CO)Cc2ccccc2)[nH]c2ccc(C(F)(F)F)cc12 (stereo not given) | 79%
Cc1c(C(=O)NC(CO)Cc2ccccc2)[nH]c2ccc(Cl)cc12 (stereo not given) | 74%
CCc1c2cc(Cl)ccc2n2cc(Cc3ccc(Cl)cc3)[nH]c(=O)c12 | 83%
CC(=O)Oc1ccccc1C(=O)O [ASPIRIN] | 92%
CCc1c(C(=O)NC(CO)Cc2ccccc2)[nH]c2ccc(Cl)cc12 (stereo not given) | 68%

tested on: not listed separately; assay: (§1) Inhibition of ROS generation in human PMN after 50 mins by luminol-based chemiluminescence assay; type: functional; details: not given

IC50 | Structure (SMILES)
10.6 µM | CCc1c(C(=O)NC(CO)Cc2ccccc2)[nH]c2ccc(Br)cc12 (stereo not given)
9.7 µM | CCc1c(C(=O)NC(CO)Cc2ccccc2)[nH]c2ccc(C(F)(F)F)cc12 (stereo not given)
5.91 µM | Cc1c(C(=O)NC(CO)Cc2ccccc2)[nH]c2ccc(Cl)cc12 (stereo not given)
7.77 µM | CCc1c2cc(Cl)ccc2n2cc(Cc3ccc(Cl)cc3)[nH]c(=O)c12
9.78 µM | CC(=O)Oc1ccccc1C(=O)O [ASPIRIN]
13 µM | CCc1c(C(=O)NC(CO)Cc2ccccc2)[nH]c2ccc(Cl)cc12 (stereo not given)

species: Homo sapiens; assay: as §1; type: functional; details: not given

Structure (SMILES) | inhibition
CCc1c(C(=O)NC(CO)Cc2ccccc2)[nH]c2ccc(Br)cc12 (stereo not given) | Dose-dependent effect
CCc1c(C(=O)NC(CO)Cc2ccccc2)[nH]c2ccc(C(F)(F)F)cc12 (stereo not given) | Dose-dependent effect
Cc1c(C(=O)NC(CO)Cc2ccccc2)[nH]c2ccc(Cl)cc12 (stereo not given) | Dose-dependent effect
CCc1c2cc(Cl)ccc2n2cc(Cc3ccc(Cl)cc3)[nH]c(=O)c12 | Dose-dependent effect
CCc1c(C(=O)NC(CO)Cc2ccccc2)[nH]c2ccc(Cl)cc12 (stereo not given) | Dose-dependent effect

tested on: not listed separately; assay: Antioxidant activity assessed as DPPH radical scavenging activity at 100 uM after 30 mins dark incubation; type: functional; details: not given

Structure (SMILES) | Activity
Cc1c(C)c2c(c(C)c1O)CCC(C)(C(=O)O)O2 (stereo not given) | 95.2%
CCc1c(C(=O)NC(CO)Cc2ccccc2)[nH]c2ccc(Br)cc12 (stereo not given) | 78.5%
CCc1c(C(=O)NC(CO)Cc2ccccc2)[nH]c2ccc(C(F)(F)F)cc12 (stereo not given) | 78%
Cc1c(C(=O)NC(CO)Cc2ccccc2)[nH]c2ccc(Cl)cc12 (stereo not given) | 86.4%
CCc1c2cc(Cl)ccc2n2cc(Cc3ccc(Cl)cc3)[nH]c(=O)c12 | 84.5%
CCc1c(C(=O)NC(CO)Cc2ccccc2)[nH]c2ccc(Cl)cc12 (stereo not given) | 70.2%

tested on: not listed separately; assay: Antioxidant activity assessed as DPPH radical scavenging activity at 50 uM after 30 mins dark incubation; type: functional; details: not given

Structure (SMILES) | Activity
Cc1c(C)c2c(c(C)c1O)CCC(C)(C(=O)O)O2 (stereo not given) | 82.5%
CCc1c(C(=O)NC(CO)Cc2ccccc2)[nH]c2ccc(Br)cc12 (stereo not given) | 67.4%
CCc1c(C(=O)NC(CO)Cc2ccccc2)[nH]c2ccc(C(F)(F)F)cc12 (stereo not given) | 61.7%
Cc1c(C(=O)NC(CO)Cc2ccccc2)[nH]c2ccc(Cl)cc12 (stereo not given) | 72.7%
CCc1c2cc(Cl)ccc2n2cc(Cc3ccc(Cl)cc3)[nH]c(=O)c12 | 70.1%
CCc1c(C(=O)NC(CO)Cc2ccccc2)[nH]c2ccc(Cl)cc12 (stereo not given) | 58.7%

tested on: not listed separately; assay: Antioxidant activity assessed as DPPH radical scavenging activity at 10 uM after 30 mins dark incubation; type: functional; details: not given

Structure (SMILES) | Activity
Cc1c(C)c2c(c(C)c1O)CCC(C)(C(=O)O)O2 (stereo not given) | 77.6%
CCc1c(C(=O)NC(CO)Cc2ccccc2)[nH]c2ccc(Br)cc12 (stereo not given) | 49.2%
CCc1c(C(=O)NC(CO)Cc2ccccc2)[nH]c2ccc(C(F)(F)F)cc12 (stereo not given) | 43.4%
Cc1c(C(=O)NC(CO)Cc2ccccc2)[nH]c2ccc(Cl)cc12 (stereo not given) | 55.4%
CCc1c2cc(Cl)ccc2n2cc(Cc3ccc(Cl)cc3)[nH]c(=O)c12 | 50.4%
CCc1c(C(=O)NC(CO)Cc2ccccc2)[nH]c2ccc(Cl)cc12 (stereo not given) | 39.9%
